What was measured:
dermal fibroblasts = experiment: Fibroblast wound healing scratch assay (migration); assay type: cell-based, human; settings: serum-free medium, histatins 5 μM, rhIL-6 125 ng/ml, rhCXCL8 250 ng/ml, (E0-E96)/(U0-U96), unexposed = 1; for Migration of dermal fibroblasts in scratch assay, 8 h exposure: 8 h exposure then 88 h without, read at 96 h; for Migration of dermal fibroblasts in scratch assay, 96 h exposure: continuous 96 h exposure
Experimental: Dermal fibroblasts were isolated from healthy human abdominal skin from patients undergoing corrective abdominal plastic surgery. After removal of all adipose tissue, the skin was washed in PBS and incubated overnight on dispase II (Roche, Mannheim, Germany) at 4°C. The next day, epidermis was removed and discarded and the dermis was incubated in collagenase type II (Gibco, Life Technologies, Grand Island, USA)/dispase II in Hanks balanced salt solution (HBSS) (Gibco) at 37°C for 2–3 h. Fibroblast medium consisting of DMEM (Lonza, Verviers, Belgium) containing 1% ultroserG (UG) (Biosepra, Cergy-Saint-Christopher, France) and 1% penicillin-streptomycin (P/S) (Gibco) was added and the solution was passed through an 100 μm and 40 μm cell strainer (Becton Dickinson Falcon, Erembodegem, Belgium). A single cell suspension was seeded at ± 3.5 x 10^4 cells cm^2 and further cultured in fibroblast medium. Medium was changed twice a week and cultures were passaged when 90% confluent using 0.5mM EDTA/0.05% trypsin (Gibco). The cells were maintained at 37°C in a humidified atmosphere containing 5% CO2 and used for experiments at passage 3.
A wound healing scratch assay was performed to determine the effect of histatins, rhIL-6 and rhCXCL8 on fibroblast migration. Confluent monolayers of fibroblasts in a 48-well plate (Costar, Corning Incorporated, New York, USA) were incubated with serum-free medium (DMEM containing 1% P/S and 0.1% bovine serum albumin (Sigma-Aldrich)) for 96 h to ensure minimum spontaneous migration. Next, a scratch was drawn with a disposable plastic pipette tip. Cultures were exposed to Hst1, cHst1, Hst2 and mad-Hst1 (all used at a concentration of 5μM), rhIL-6 (125 ng/ml), rhCXCL8 (250 ng/ml) and vehicle (H2O) in serum free medium. Two experimental set-ups were studied: i) cells were exposed only during the first 8 h to histatins and cytokines and then transferred to vehicle supplemented medium for an additional 88 h; or ii) cells were exposed to histatins and cytokines during the entire 96 h study period. Phase contrast micrographs were taken directly after drawing the scratch and after four days (96 h) of exposure. Data were analyzed using an image processing algorithm that has been described in detail in our previous work. The area of the scratch covered by migrating fibroblasts was determined using the following equation: (E0-E96)/(U0-U96), in which: E = exposure to a condition (IL-6, CXCL8 and histatins); U = unexposed (serum-free medium); E0 and U0 = area of the scratch at T = 0 h; E96 and U96 = area of the scratch (not covered with cells) after 96 h. In this way, in each exposed group (IL-6, CXCL8, histatins) the resurfaced area at 96 h is compared to its own 0 h time point and then set relative to the unexposed group (serum-free medium).

[1] = Stability in chronic wound extracts (CWE), capillary zone electrophoresis; assay type: in vitro ADME, human; settings: 37°C, 96 h, CZE; for Starting material remaining intact after 96 h in CWE: 1 mg/ml in PBS mixed 1:1 with CWE (1 mg/ml protein, pools of 5 donors), 0 h = 100%, mean of 3 independent experiments; for Degradation in CWE in 96 h: incubation with chronic wound extracts
Text: Debridement tissue was obtained from chronic ulcers of 15 patients with therapy resistant (arterio-venous) leg ulcers, according to procedures described earlier. In brief, moist, easily removable debridement material, essentially blood free, was collected from the ulcer surface and divided equally into two different solutions: (i) PBS (B. Braun, Melsungen, Germany), (ii) PBS with protease inhibitor cocktail (PIC) (1:100; v/v) (Sigma-Aldrich, Steinheim, Germany). The mixtures were gently shaken for 1 h at 4°C to elute proteins and centrifuged; the supernatants were stored at -80°C. Total protein content of the supernatant was measured using the BioRad Protein Assay (BioRad Laboratories, Hercules, California, USA) essentially as described by the supplier. Samples were diluted to 1 mg/ml protein and extracts of five different donors were pooled; three different pools of five donors were used in all experiments. The samples are referred to as chronic wound extracts (CWE).
To determine the stability of the different peptides in CWE, histatins and cytokines were dissolved in PBS at 1 mg/ml. Histatins and cytokines were incubated in a 1:1 ratio with (i) PBS, (ii) CWE in PBS, or (iii) CWE in PBS containing PIC, in a total volume of 25 μl. Imidazole (Sigma-Aldrich) was added as an internal standard, with a final concentration of 100 μg/ml. The mixtures were incubated at 37°C, and samples were taken at 0, 24, 48, 72 and 96 h. For histatins containing mixtures, additional samples were taken after 2, 4, 8 and 16 h of incubation.
The samples were analyzed with a BioFocus 2000 capillary zone electrophoresis system (Bio-Rad Laboratories, Hercules, CA, USA) equipped with an uncoated fused-silica capillary of internal diameter 50 μm and a length of 24 cm. Samples were loaded by pressure injection (5 psi/sec). Separation was performed at 10 kV (cathode at the detector side) at 20°C using 0.1 M phosphate buffer (pH 2.5) as electrolyte and monitored continuously at 200 nm. Peaks were quantified with the BioFocus Integrator software. In order to quantify the percentage of intact peptides remaining after incubation with CWE, the ratios of histatins, rhIL-6 or rhCXCL8 to internal standard was set at 100% at 0h, and the ratios at the other incubation time points were related to this.

[2] = experiment 1, average of four replicates
[3] = experiment 2, average of four replicates
[4] = experiment 3, average of four replicates
[5] = experiment 4, average of four replicates

Row | Substance | Migration of dermal fibroblasts in scratch assay, 8 h exposure (dermal fibroblasts; [2]) | Migration of dermal fibroblasts in scratch assay, 8 h exposure (dermal fibroblasts; [3]) | Migration of dermal fibroblasts in scratch assay, 8 h exposure (dermal fibroblasts; [4]) | Migration of dermal fibroblasts in scratch assay, 8 h exposure (dermal fibroblasts; [5]) | Migration of dermal fibroblasts in scratch assay, 96 h exposure (dermal fibroblasts; [2]) | Migration of dermal fibroblasts in scratch assay, 96 h exposure (dermal fibroblasts; [3]) | Migration of dermal fibroblasts in scratch assay, 96 h exposure (dermal fibroblasts; [4]) | Migration of dermal fibroblasts in scratch assay, 96 h exposure (dermal fibroblasts; [5]) | Starting material remaining intact after 96 h in CWE [1] | Degradation in CWE in 96 h [1]
1 | rhCXCL8: recombinant human CXCL8; source not split at this label (migration assay used CXCL8 (6–77) from R&D) | 1.29 | 1.35 | 1.63 | 2.13 | 1.13 | 1.58 | 1.46 | 1.64 | approximately 80% | ~ 40%
2 | rhIL-6: recombinant human IL-6; source not split at this label | 1.22 | 1.38 | 1.91 | 2.25 | 1.7 | 1.23 | 1.5 | 2.03 | more than 55% | ~ 40%

Reference: PMC4809600, “The Influence of Chronic Wound Extracts on Inflammatory Cytokine and Histatin Stability” (PLoS ONE, 2016)
